T1: DynF (Micromonospora chersina, UniProt B2BM43)
T1 construct: full-length, N-terminal 6xHis tag cleaved with TEV protease (one extra Ser before Met1); E. coli BL21 (DE3); dimer
T1 sequence (B2BM43 1-210): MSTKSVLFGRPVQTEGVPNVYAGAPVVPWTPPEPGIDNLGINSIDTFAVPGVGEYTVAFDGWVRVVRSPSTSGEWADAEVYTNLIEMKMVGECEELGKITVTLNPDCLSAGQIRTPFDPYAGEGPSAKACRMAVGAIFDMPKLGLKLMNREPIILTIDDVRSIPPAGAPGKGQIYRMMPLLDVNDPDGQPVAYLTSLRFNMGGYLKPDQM

B1: DynF from Micromonospora chersina ATCC53710 (natural protein)
chain: T1 sequence (B2BM43 1-210)
notes: DynF, Micromonospora chersina ATCC53710, protein of unknown function from the dynemicin biosynthetic gene cluster; GenBank ACB47058.1; the insert primers run from the ATG to the TGA stop codon; The tag mgsshhhhhhenlyfq/s was cut by TEV protease at the slash, so one serine of the tag stays before Met1 (211 residues a chain; 418 of 422 residues built for two chains); Vector pNIC28-Bsa4 (Addgene …)

Assays:
DynF = molecular target: T1, DynF; assay: X-ray crystal structure ([…] Å); GC-MS of acetonitrile extract; type: binding; details: co-purified from E. coli; bound inside the beta-barrel cavity of each protomer
[1] = molecular target: the molecule itself; assay: crystal structure; sitting-drop vapor diffusion, 293 K, 25%(w/v) PEG 1500, 0.1 M PCB buffer pH 7.0; space group C222(1); two molecules in the asymmetric unit; palmitic acid bound

Molecule | X-ray crystal structure (1.50 Å); GC-MS of acetonitrile extract (DynF) | binding result [1]
CCCCCCCCCCCCCCCC(=O)O [palmitic acid] | confirmed by gas chromatography–mass spectrometry (GC-MS) as palmitic acid | –
B1 | – | binds
